EPA's ToxRefDB 2

Columns and labels:
dog [1] = conditions: Sub-acute repeat dose toxicity, beagle, Oral, Gavage/Intubation, dose end: 4 week, group: systemic
rat [2] = conditions: Sub-acute repeat dose toxicity; sprague dawley; Oral; Gavage/Intubation; dose end: 4 week; group: systemic; systemic / organ weight / liver / absolute + systemic / organ weight / liver / relative to body weight
dog [3] = conditions: Sub-acute repeat dose toxicity, beagle, Oral, Gavage/Intubation, dose end: 4 week, group: systemic; remark: listed apart in the source
rabbit = conditions: Prenatal developmental toxicity study; himalayan; Oral; Gavage/Intubation; dose end: 18 GD; group: maternal; systemic / in life observation / clinical signs / defecation + systemic / in life observation / clinical signs / feces, discoloration + …
primate = conditions: Sub-acute repeat dose toxicity, macaque, Oral, Gavage/Intubation, dose end: 4 week, group: systemic
rat [4] = conditions: Prenatal developmental toxicity study; sprague dawley; Injection; Intramuscular; dose end: 14 GD; group: developmental; developmental / developmental malformation / mouth / jaw / cleft palate + developmental / developmental malformation / trunk / umbilical …
rat [5] = conditions: Prenatal developmental toxicity study, sprague dawley, Injection, Intramuscular, dose end: 13 GD
rat [6] = conditions: Sub-acute dermal toxicity, sprague dawley, Topical, dose end: 2 week, group: systemic
rat [7] = conditions: Subchronic dermal toxicity, sprague dawley, Topical, dose end: 90 day, group: systemic, systemic / pathology microscopic / skin / acanthosis + systemic / pathology microscopic / skin / edema + systemic / pathology microscopic / …
rat [8] = conditions: Subchronic dermal toxicity, Topical, dose end: 68 day, group: systemic
mouse [9] = conditions: Subchronic oral toxicity in rodents, b6c3f1, Feed, dose end: 14 week, group: systemic, systemic / hematology / mean corpuscular (cell) volume (mcv) / mean corpuscular (cell) volume (mcv) + systemic / hematology / mean …
mouse [10] = conditions: Carcinogenicity, b6c3f1, Oral, Feed, dose end: 2 year, group: systemic
rat [11] = conditions: Carcinogenicity, fischer, Oral, Feed, dose end: 2 year, group: systemic
rat [12] = conditions: Subchronic oral toxicity in rodents, fischer, Feed, dose end: 14 week, group: systemic
[13] = systemic / clinical chemistry / alanine aminotransferase (alt/sgpt) / alanine aminotransferase (alt/sgpt) + systemic / clinical chemistry / …
[14] = systemic / clinical chemistry / alkaline phosphatase (alp/alk) / alkaline phosphatase (alp/alk)
[15] = systemic / clinical chemistry / alkaline phosphatase (alp/alk) / alkaline phosphatase (alp/alk) + systemic / pathology microscopic / liver…
[16] = systemic / pathology microscopic / liver / pigmentation
[17] = systemic / clinical chemistry / bilirubin / total bilirubin + systemic / organ weight / liver / relative to body weight + systemic / …
[18] = systemic / pathology microscopic / liver / granuloma + systemic / pathology microscopic / liver / infiltration cellular + systemic / …
[19] = group: developmental, developmental / developmental malformation / mouth / jaw / cleft palate + developmental / developmental malformation / trunk / umbilical …
[20] = group: developmental, developmental / developmental malformation / mouth / jaw / cleft palate + systemic / in life observation / body weight / fetal weight
[21] = group: maternal, reproductive / offspring survival early / dead fetuses / dead fetuses
[22] = systemic / in life observation / clinical signs / erythema
[23] = systemic / in life observation / clinical signs / erythema + systemic / in life observation / clinical signs / general pallor + systemic / …
[24] = systemic / in life observation / clinical signs / [other] + systemic / pathology gross / skin / thickened + systemic / pathology gross / …
[25] = systemic / in life observation / body weight / body weight
[26] = systemic / in life observation / body weight / body weight + systemic / pathology microscopic / nose / pigmentation
[27] = systemic / in life observation / body weight / body weight + systemic / in life observation / food consumption / food consumption
[28] = systemic / clinical chemistry / bile acids / bile acids + systemic / in life observation / body weight / body weight + systemic / in life …

`CC[C@H](NC(=O)c1cc(F)ccc1[N-]S(=O)(=O)c1cccc2cccnc12)c1ccccc1.[Na+]` [AVE3295] showed an LOAEL (dog [1]; [13]) of over 300 mg/kg/day, an NOAEL (dog [1]; [13]) of at least 300 mg/kg/day and an LEL (dog [1]; [14]) of 10 mg/kg/day. The NEL (dog [1]; [14]) was under 10 mg/kg/day, the LEL (rat [2]) was 2000 mg/kg/day and the LOAEL (rat [2]) was over 2000 mg/kg/day. The NEL (rat [2]) was 315 mg/kg/day, the NOAEL (rat [2]) was at least 2000 mg/kg/day and the LOAEL (dog [3]; [15]) was 5 mg/kg/day. It also gave an NOAEL (dog [3]; [15]) of 1 mg/kg/day, an LEL (dog [3]; [16]) of 1 mg/kg/day and an NEL (dog [3]; [16]) of under 1 mg/kg/day. It also gave an LEL (rabbit) of 1000 mg/kg/day, an LOAEL (rabbit) of over 1000 mg/kg/day and an NEL (rabbit) of 250 mg/kg/day. For the same compound, the NOAEL (rabbit) was at least 1000 mg/kg/day, the LOAEL (primate; [17]) was over 1000 mg/kg/day and the NOAEL (primate; [17]) was at least 1000 mg/kg/day. For the same compound, the LEL (primate; [18]) was 60 mg/kg/day and the NEL (primate; [18]) was under 60 mg/kg/day.
`CC1(C)O[C@@H]2C[C@H]3[C@@H]4CCC5=CC(=O)C=C[C@]5(C)[C@@]4(F)[C@@H](O)C[C@]3(C)[C@]2(C(=O)CO)O1` [Triamcinolone acetonide] was tested, and the LEL (rat [4]) was 0.5 mg/kg/day, the LOAEL (rat [4]) was over 0.5 mg/kg/day and the NEL (rat [4]) was under 0.5 mg/kg/day. For the same compound, the NOAEL (rat [4]) was at least 0.5 mg/kg/day, the LOAEL (rat [5]; [19]) was over 5 mg/kg/day and the NOAEL (rat [5]; [19]) was at least 5 mg/kg/day. The LEL (rat [5]; [20]) was 0.5 mg/kg/day, the NEL (rat [5]; [20]) was under 0.5 mg/kg/day and the LEL (rat [5]; [21]) was 2.5 mg/kg/day. The LOAEL (rat [5]; [21]) was over 5 mg/kg/day, the NEL (rat [5]; [21]) was 0.5 mg/kg/day and the NOAEL (rat [5]; [21]) was at least 5 mg/kg/day.
With `CC1(C)COCN1` [4,4-Dimethyloxazolidine] the LEL (rat [6]; [22]) was 10 mg/kg/day, the LOAEL (rat [6]; [22]) was 10 mg/kg/day and the NEL (rat [6]; [23]) was 1 mg/kg/day. The NOAEL (rat [6]; [23]) was 1 mg/kg/day, the LEL (rat [7]) was 30 mg/kg/day and the LOAEL (rat [7]) was 30 mg/kg/day. It also gave an NEL (rat [7]) of 1 mg/kg/day, an NOAEL (rat [7]) of 1 mg/kg/day and an LEL (rat [8]; systemic / in life observation / clinical signs / [other]) of 19.5 mg/kg/day. It also gave an LOAEL (rat [8]; [24]) of 195 mg/kg/day, an NEL (rat [8]; [24]) of 1.95 mg/kg/day and an NOAEL (rat [8]; [24]) of 19.5 mg/kg/day.
`O=C/C=C/c1ccccc1` [(2E)-3-Phenylprop-2-enal] was tested, and the LEL (mouse [9]) was 1320 mg/kg/day, the LOAEL (mouse [9]) was over 5200 mg/kg/day and the NEL (mouse [9]) was 650 mg/kg/day. It also gave an NOAEL (mouse [9]) of at least 5200 mg/kg/day, an LOAEL (mouse [10]; [25]) of 270 mg/kg/day and an LEL (mouse [10]; [26]) of 270 mg/kg/day. The NEL (mouse [10]; [26]) was 125 mg/kg/day, the NOAEL (mouse [10]; [26]) was 125 mg/kg/day and the LOAEL (rat [11]; [25]) was 200 mg/kg/day. It also gave an LEL (rat [11]; [27]) of 100 mg/kg/day, an NEL (rat [11]; [27]) of 50 mg/kg/day and an NOAEL (rat [11]; [27]) of 100 mg/kg/day. For the same compound, the LOAEL (rat [12]; [13]) was over 3100 mg/kg/day, the NOAEL (rat [12]; [13]) was at least 3100 mg/kg/day and the LEL (rat [12]; [28]) was 275 mg/kg/day. For the same compound, the NEL (rat [12]; [28]) was under 275 mg/kg/day.
